US20090158447A1, “TLR ligand and IL-1 Response-Injured Animal Model” (priority 2004, published 2009)

Columns and labels:
Format in all cases: cell-based, mouse
RAW 264.7 cells = test: Luciferase reporter assay of IL-6 and ELAM1 promoters; details: RAW 264.7 cells transfected with luciferase reporter plasmids, FIG. 4a
Excerpt: It is a figure showing the result of an in vitro analysis of IκB-ζ on the IL-6 promoter. a. RAW 264.7 cells were transiently transfected with luciferase reporter constructs of either mouse IL-6 promoter or ELAM1 promoter together with either a control or the IκB-ζ expression plasmid. Luciferase activities were expressed as fold-increase over the background shown by lysates prepared from untransfected cells. Data are representative of three separate experiments. In all three experiments, cells were stimulated with the indicated concentrations of LPS. b. A certain amount of IκB-ζ expression vector was transiently introduced into untreated RAW 264.7 cells with the indicated amount of IL-6 reporter plasmid. Data are representative of three independent experiments. c. […] Precipitated DNA for the IL-6 κB site (left), 3′ region of IL-6 gene (center), or ELAM1 promoter (right) was measured by PCR (ChIP). […]
Reporter plasmids were transiently co-transfected into RAW 264.7 and P19 cells with either control or the IκB-ζ expression vectors by using SUPERFECT transfection reagent (QIAGEN). Luciferase activities of total cell lysates were measured using dual-luciferase reporter assay system (Promega, Maiden, Wis.) according to the method described previously (28, 29) (Nat Immunol. 3, 392-398 (2002); Nat Immunol. 2, 835-841 (2001)).

[1] = test system: peritoneal macrophages or lung-derived normal cells; test: Northern blot analysis of IκB-ζ, Bcl-3 and IκB-α expression on TLR/IL-1R stimulation; details: stimulation for 2 hours, FIG. 1a
Description: Peritoneal macrophages and lung primary cells were stimulated with 100 ng ml^−1 BLP, 10 μg ml^−1 PGN, 30 ng ml^−1 MALP-2, 100 nM R-848, 3 μM CpG DNA, 10 ng ml^−1 IL-1β, 10 μg ml^−1 LPS, 100 ng ml^−1 flagellin, and 10 ng ml^−1 TNF-α for 2 hours. Total RNA (10 μg) was extracted and subjected to Northern blot analysis for investigating the expression of IκB-ζ, Bcl-3, IκB-α, and β-actin. b. MEFs from wild-type and MyD88-deficient mice were stimulated with 10 ng ml^−1 IL-1β and 10 μg ml^−1 LPS for the indicated periods. Total RNA (10 μg) was extracted and subjected to Northern blot analysis for investigating the expression of IκB-ζ, Cox-2, IP-10, and β-actin.
Whether IκB-ζ would be induced in response to other TLR ligands was examined based on the fact that stimulation with IL-1 or LPS induces IκB-ζ in macrophage cell lines and fibroblasts, and that IL-1R and the receptor for LPS, TLR4, share the intracellular signaling pathways. […] On the other hand, other IκB family members, IκB-α and Bcl-3, were induced in response to TNF-αas well as a TLR ligand and IL-1. Taken together, unlike IκB-α and Bcl-3, the IκB-ζ induction is specifically detected on the TLR/IL-1R stimulation.

peritoneal macrophages = test: Time-course Northern blot analysis of IκB-ζ induction following LPS stimulation; details: wild-type peritoneal macrophages, 10 ng ml^−1 LPS, FIG. 3h
Description: It is a figure showing immune responses in IκB-ζ-deficient cells, and kinetics of IκB-ζ induction. a, b, c, d. Peritoneal macrophages from wild-type and IκB-ζ-deficient mice were cultured with the indicated concentrations of PGN, R-848, CpG DNA in the coexistence of 10 ng ml^−1 LPS, 100 ng ml^−1 BLP, and 30 ng ml^−1 MALP-2, and in the presence of 30 ng ml^−1 IFN-γ for 24 h. Concentrations of IL-6, TNF-α, and NO in the culture supernatants were measured. The indicated values are means±SD of triplicates. “N.D.” means not detected. e. MEFs from wild-type and IκB-ζ-deficient mice were stimulated with 10 ng ml^−1 IL-1 and 10 ng ml^−1 TNF-α. Supernatents were collected for IL-6 analysis by ELISA 24 h later. Indicated values are means±SD of triplicates. “N.D.” means not detected. f. Peritoneal macrophages were stimulated with 10 ng ml^−1 LPS for the indicated periods. Total RNA (5 μg) was extracted and subjected to Northern blot analysis for investigating the expression of IL-6, TNF-α, and β-actin. g. […] Concentrations of IL-6 in the culture supernatants, with or without 10 ng ml^−1 IL-β, were measured by ELISA. […] Two-independent experiments with independently derived wild-type cells were quantitated by Phospholmager and mRNA amount was graphed for the indicated genes in arbitrary units (left for IκB-ζ and IL-6, right for TNF-α) relative to β-actin. […]

lipopolysaccharide [LPS]
activation of both IL-6 and ELAM1 promoters (RAW 264.7 cells): dose-dependent manner
IκB-ζ mRNA induction [1]: strongly induced
time after stimulation at which IκB-ζ induction reached its maximum level (peritoneal macrophages): 120 min
time after stimulation at which IκB-ζ induction was observed (peritoneal macrophages): 30 min
